Source: PMC11327196, “A phase 1 study to assess the absolute bioavailability, mass balance, pharmacokinetics, metabolism, and excretion of [^14C]-mobocertinib, an oral inhibitor of EGFR exon 20 insertion mutations, in healthy participants” (Investigational New Drugs, 2024)
“Also recorded” adds a separate entry of the source.

Assays:
[1] = Period 2 human ADME study: plasma PK after oral solution [14C]-mobocertinib; type: in vivo
Method: This was a two-period, open-label, single-dose phase 1 study (NCT03811834) conducted at one clinical site (Celerion, Lincoln, Nebraska, USA) in healthy male participants. The primary objective of Period 1 was to determine the absolute bioavailability of mobocertinib following a single oral dose of 160 mg mobocertinib as capsules and a single intravenous (IV) microdose of 50 µg (~ 2 µCi) [^14C]-mobocertinib. The primary objectives of Period 2 were to (1) assess the cumulative excretion of total radioactivity in urine and feces (mass balance); (2) assess the metabolite profile of mobocertinib in plasma, urine, and feces; and (3) characterize the PK of mobocertinib, AP32960, and AP32914 in plasma, whole blood, and urine, and total radioactivity concentration equivalents in plasma and whole blood following a single oral dose of 160 mg (~ 100 µCi) [^14C]-mobocertinib as an oral solution. A sample size of 6 healthy males was selected without statistical considerations and deemed adequate to meet the study objectives. Furthermore, the sample size was limited based on clinical considerations for human ADME studies and to limit exposure to radioactivity.
After a washout of 8–9 days, participants returned to the clinic for Day − 1 of Period 2. On Day 1 of Period 2, after a fast of ≥ 10 h, participants received a single nominal dose of 160 mg (~ 100 µCi; whole body effective dose of 5.3 mrem for a 70-kg human) [^14C]-mobocertinib as a 70 mL oral solution. The actual doses administered ranged from 161 to 163 mg (92.4 to 93.9 µCi). Participants stayed in the clinic from Day − 1 until a discharge criterion (≥ 80% of the total administered radioactive dose was recovered in urine and feces or excretion of radioactivity in urine and feces combined had declined to ≤ 1% of the total administered dose per day for ≥ 2 consecutive intervals) was met, or up to 10 days postdose. To measure the total radioactivity and concentrations of mobocertinib, AP32960, and AP32914 in whole blood and plasma, 4 blood samples were collected predose, and at 0.5, 1, 2, 3, 4, 5, 6, 8, 12, 24, 36, 48, 72, 96, 120, 144, 168, 192, 216, and 240 h postdose; a fifth blood sample was collected for plasma metabolite profiling at predose and 1, 2, 4, 6, 12, 24, 48, 72, 96, 120, and 168 h postdose. Feces and urine were collected predose (feces within 48 h and urine within 24 h prior to dosing), 0–24 h (urine from 0–12 and 12–24 h), and then at 24-hour intervals up to 240 h postdose or until a discharge criterion was met. […] These 2 participants continued with at-home fecal sample collections. One participant provided fecal samples until Day 13 (264–288 h interval) and one participant provided fecal samples until Day 19 (408–432 h interval), after which they met a discharge criterion.
Plasma, whole blood, and urine samples were assayed for mobocertinib, AP32960, and AP32914 concentrations using liquid chromatography-tandem mass spectrometry (Q2 Solutions, Ithaca, New York, USA). The analytical range for each analyte was 0.250 to 500 ng/mL in whole blood and plasma, and 1.00 to 1000 ng/mL in urine. […] Urine and fecal samples were assayed for total radioactivity following the IV dose of [^14C]-mobocertinib in Period 1, and whole blood, plasma, urine, and fecal samples were assayed for total radioactivity following the oral dose of [^14C]-mobocertinib in Period 2 using liquid scintillation counting (LSC; Celerion, Lincoln, Nebraska, USA; LLOQs: Period 1 urine: 0.115–0.118 ng eq/g, feces: 0.720–0.759 ng eq/g; Period 2 whole blood: 87.3–112 ng eq/g, plasma: 116–132 ng eq/mL, urine: 37.8–46.8 ng eq/g, feces: 110–336 ng eq/g across participants). Urine and fecal samples collected in Period 1 that had total radioactivity concentration equivalents below the LLOQ of the Celerion LSC assay were sent to Pharmaron for measurement by AMS (LLOQ: urine: 0.0000253–0.00111 ng eq/g; feces: 0.000404–0.0278 ng eq/g across participants). The LSC and AMS assays were not cross-validated. […]

[2] = Safety assessments (adverse events) in healthy participants; type: in vivo, human
Method: Safety was evaluated based on the incidence and severity of AEs and changes from baseline in clinical laboratory results, vital signs, and ECG parameters. AEs were graded according to Common Terminology Criteria for Adverse Events version 5.0.

[3] = Period 2, oral solution 160 mg [14C]-mobocertinib, geometric mean (geometric CV%)
[4] = male, human, Period 2, oral solution 160 mg [14C]-mobocertinib, geometric mean (geometric CV%)

C=CC(=O)Nc1cc(Nc2ncc(C(=O)OC(C)C)c(-c3cn(C)c4ccccc34)n2)c(OC)cc1N(C)CCN(C)C [Mobocertinib]
t1/2z of total radioactivity ([1]; Period 2, oral solution 160 mg [14C]-mobocertinib, exceeds duration of sampling, approximate estimate, geometric mean (geometric CV%)): ~281 h
CL/F [1, 3]: 169 (38.4) L/h
Molar AUC∞ ratio (analyte vs. total radioactivity) [1, 3]: 0.00172 (31.1)
tmax ([1]; Period 2, single oral solution 160 mg (~100 µCi) [14C]-mobocertinib, median (range)): 6.0 (3.0–6.0) h
AUC(0-inf) [1, 4]: 956 ng·h/mL
AUC(0-t) [1, 4]: 945 ng·h/mL
Cmax [1, 4]: 51 ng/mL
Vd/F ([1]; male, human, Period 2, oral solution 160 mg [14C]-mobocertinib, geometric mean (geometric CV%), read-out: Vz/F): 5560 L
half-life ([1]; male, human, Period 2, oral solution 160 mg [14C]-mobocertinib, geometric mean (geometric CV%), read-out: t1/2z (converted)): 22.8 h
deaths or serious AEs ([2]; 7 healthy male participants, Periods 1 and 2): no deaths or serious AEs
severity of AEs ([2]; CTCAE version 5.0, both treatment periods): grade 1 (mild)
participants who experienced at least 1 AE ([2]; Period 1): 6
participants who experienced at least 1 AE ([2]; Period 2): 4
overall safety and tolerability ([2]; both treatment periods): generally safe and well-tolerated; also recorded: no new safety signals observed
incidence of most common AEs (constipation, diarrhea, and nausea, each) ([2]; each in 2 of 7 participants): 29%
discontinuation because of AEs ([2]; eructation, nausea, salivary hypersecretion, vomiting on Day 1 of Period 1): One participant discontinued the study early because of multiple AEs
participants who experienced at least 1 AE ([2]; of 7 participants, whole study): 7
